The values below come from article PMC4931907 (eLife, 2016).

Usually IC50 stands for the concentration needed to halve the response being measured.

Experiment [1] concerns the target T1, p300 (Homo sapiens, UniProt Q09472).
T1 construct: in vitro acetylation assays with purified histones and a recombinant p300 catalytic domain; purchased Enzo Life Sciences
T1 sequence (Q09472 1287-1663 limits assumed): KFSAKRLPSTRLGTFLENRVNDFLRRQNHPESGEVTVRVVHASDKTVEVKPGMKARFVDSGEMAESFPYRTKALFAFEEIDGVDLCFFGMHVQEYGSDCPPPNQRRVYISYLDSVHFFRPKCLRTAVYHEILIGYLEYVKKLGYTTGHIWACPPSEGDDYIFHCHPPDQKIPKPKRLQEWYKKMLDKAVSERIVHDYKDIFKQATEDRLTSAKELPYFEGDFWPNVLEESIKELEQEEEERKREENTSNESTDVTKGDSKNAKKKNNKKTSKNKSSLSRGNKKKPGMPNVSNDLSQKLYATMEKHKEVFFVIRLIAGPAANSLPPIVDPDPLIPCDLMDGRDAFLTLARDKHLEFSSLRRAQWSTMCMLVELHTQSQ
In words: In vitro HAT assay with recombinant p300, histones and 14C acetyl-CoA. It is filed as biochemical. Conditions: for IC50: in vitro HAT assay, recombinant p300 and histones, read-out: IC50, p300 acetyltransferase activity; for Inhibition of p300 acetyltransferase in vitro: data not shown. As to the method: To determine whether salicylate inhibits p300 and other acetyltransferases, we used in vitro acetylation assays with purified histones and a recombinant p300 catalytic domain.
(§1) Figure 1. Salicylate inhibits CBP/p300 in vitro. (A) Recombinant p300, CBP, GCN5, or PCAF and histones were incubated with ^14C-labeled acetyl-CoA with or without sodium salicylate, separated by SDS-PAGE, analyzed by autoradiography, and quantified with Image J software. Acetylation levels are relative to those in untreated controls. (B) Thermal stability assay for sodium salicylate binding to the p300 HAT domain. Tm, melting temperature. (C) and (D) Lineweaver-Burk plots showing kinetic analysis of p300 acetyltransferase inhibition by sodium salicylate. Histone acetylation was measured with several concentrations of acetyl-CoA (C) or histone (D) in the presence or absence of sodium salicylate. DOI: http://dx.doi.org/10.7554/eLife.11156.003 Figure 1—figure supplement 1. […] (A) Dose-response data for inhibition of p300 by salicylate and salicyl-CoA. Acetylation of an H4(3–14) peptide was monitored using direct microfluidic mobility shift analysis as previously described ([Montgomery et al., 2014]; [Fanslau et al., 2010]). Error is given as the 95% confidence interval. […] Error is given as the 95% confidence interval. DOI: http://dx.doi.org/10.7554/eLife.11156.004 [drawing 1] TEXT PRINTED IN THE PICTURE: (A) Salicylate: p300 IC50 (mM): 6.12; Confidence Interval [CI95] (mM): 5.2–7.2 | (A) Salicyl-CoA: p300 IC50 (mM): […]; Confidence Interval [CI95] […] (mM): 0.78–1.4 | (B) Diflunisal-CoA: p300 IC50 (mM): 0.02; Confidence Interval [CI95] (mM): 0.02–0.03
Recombinant HAT ([…]), either p300, CBP, PCAF, or GCN5 (Enzo Life Sciences), and 10 µg of histones (Sigma) were incubated with sodium salicylate (Sigma) in reaction buffer (50 mM HEPES, pH 8.0, 10% glycerol, 1 mM) at 30°C for 30 min and then with 0.1 mCi of ^14C acetyl-CoA at 30°C for 60 min. Reactions were stopped by adding 6x sample buffer and analyzed by SDS-PAGE. The gels were dried, and signals were obtained by autoradiography and quantified with Image J software. To quantify acetylated histone levels, we generated a standard curve from signals of lanes loaded with […] of ^14C labeled histones.

Experiment [2] concerns the target T1, p300. In words: p300 inhibition by direct microfluidic mobility shift analysis, H4(3–14) peptide. It is filed as biochemical. Conditions: for IC50: microfluidic mobility shift, H4(3–14) peptide, 5 μM acetyl-CoA; for Fold increased potency of CoA metabolite in comparison with parent drug: ratio of p300 IC50 values. The protocol: as §1
Salicyl-CoA and diflunisal-CoA were synthesized from their parent carboxylic acids and HPLC purified according to previously reported methods ([Padmakumar et al., 1997]). The purity of each acyl-CoA was confirmed by analytical HPLC prior immediately prior to utilization ([Montgomery et al., 2014]; [Fanslau et al., 2010]). P300 inhibition assays were performed using direct microfluidic mobility shift analysis as previously described. Briefly, p300 reaction mixture (50 mM HEPES, pH 7.5, 50 mM NaCl, 2 mM EDTA, 2 mM DTT, 0.05% Triton-X-100, 50 nM p300, 2 μM FITC-histone H4 peptide) was plated in 384-well plates and allowed to equilibrate at room temperature for 10 min. Reactions were initiated by addition of acetyl-CoA (final concentration = 5 μM), bringing the final assay volume to 30 μL. Assays were quenched after 10 min (<15% product accumulation) by addition of 5 μL of 0.5 M neutral hydroxylamine and transferred to a Perkin-Elmer Lab-Chip EZ-Reader instrument for analysis. Separation conditions were: downstream voltage of −500 V, upstream voltage of −2500 V, and a pressure of −1.5 psi. Percent conversion was calculated by ratiometric measurement of substrate/product peak heights. Percent activity represents the percent conversion of KAT reactions treated with inhibitors relative to untreated control KAT reactions, and corrected for nonenzymatic acetylation. Dose-response analysis of p300 inhibition was performed in triplicate and analyzed by nonlinear least-squares regression fit to Y = 100/(1 + 10∧(Log IC50 – X)*H), where H = Hill slope (variable). IC50 values represent the concentration that inhibits 50% of KAT activity. Calculations were performed using Prism 6 (GraphPad) software.

Take `Nc1ccc(C(=O)O)c(O)c1` [4-Amino- Salicylic Acid, 4-aminosalicylic acid]: the IC50 on p300 [1] is 12400 µM.

With `Nc1ccc(O)c(C(=O)O)c1` [5-Amino- Salicylic Acid, 5-aminosalicylic acid], the IC50 at p300 [1] was found to be 7600 µM.

With `CC(=O)Oc1ccccc1C(=O)O` [Acetyl- Salicylic Acid, acetylsalicylic acid], at p300 [1], the IC50 was 14200 µM. For the compound `CC(=O)Nc1ccc(O)cc1` [acetaminophen], the “Inhibition of p300 acetyltransferase in vitro” value on p300 [1] is recorded as “did not detect any inhibitory activity”. In the case of `CC(C)(COP(=O)(O)OP(=O)(O)OCC1OC(n2cnc3c(N)ncnc32)C(O)C1OP(=O)(O)O)C(O)C(=O)NCCC(=O)NCCSC(=O)c1cc(-c2ccc(F)cc2F)ccc1O` (centres unmarked) [diflunisal-CoA], at p300 [2], the IC50 is 20 µM and the “Fold increased potency of CoA metabolite in comparison with parent drug” value came out at 52 fold. As to `COc1ccc2c(c1)c(CC(=O)O)c(C)n2C(=O)c1ccc(Cl)cc1` [indomethacin], at p300 [1], the “Inhibition of p300 acetyltransferase in vitro” value is “did not detect any inhibitory activity”. Regarding `COc1c(C)c2c(c(O)c1C/C=C(\C)CCC(=O)O)C(=O)OC2` [mycophenolic acid], on p300 [1], the IC50 worked out at 664 µM. The same measure, in the same setting: for `CCOc1cc(CC(=O)N[C@@H](CC(C)C)c2ccccc2N2CCCCC2)ccc1C(=O)O` [repaglinide] the value was 374 µM. In the case of `CC(C)(COP(=O)(O)OP(=O)(O)OC[C@H]1O[C@@H](n2cnc3c(N)ncnc32)[C@H](O)[C@@H]1OP(=O)(O)O)[C@@H](O)C(=O)NCCC(=O)NCCSC(=O)c1ccccc1O` [salicyl-CoA], at p300 [2], the IC50 turned out to be 220 µM and the “Fold increased potency of CoA metabolite in comparison with parent drug” value is listed as 28 fold.
